For assay [1], the system named is AKT protein phosphorylated on serine 473 in PC3 human prostate carcinoma cells. The experiment in a line: pAKT expression in PC3 cells measured by western blotting (test A). The following applies: PC-3, inhibition of AKT Ser473 phosphorylation, 1 to 2 hours incubation, absolute IC50, mean of two experiments. It counts as cell-based. Here is the method: (§1) The inhibitory activity of the molecules on AKT phosphorylation is measured either by western blotting using the technique described below, or by the MSD Multi-spot Biomarker detection technique from Meso Scale Discovery also described below.
Study of pAKT expression in PC3 human prostate carcinoma cells measured by western blotting (test A):
This test is based on measuring the expression of the AKT protein phosphorylated on serine 473. The phosphorylation of AKT (pAKT) is measured by western blotting in the PC3 human prostate carcinoma line (ATCC CRL-1435), using an antibody that specifically recognises pAKT-5473.
On day 1, the PC3 cells are seeded into 6-well plates (TPP, #92006) at the concentration of 0.8×10^6 cells/well in 1800 μl of DMEM medium (DMEM Gibco #11960-044) containing 10% of foetal calf serum (SVF Gibco, #10500-056) and 1% glutamine (L-Glu Gibco #25030-024), and incubated at 37° C., 5% CO2, overnight.
On day 2, the cells are incubated in the presence or absence of the test products for 1 to 2 hours at 37° C. in the presence of 5% CO2. The molecules, diluted in dimethyl sulphoxide (DMSO Sigma #D2650), are added from a 10-times concentrated stock solution, the final percentage of DMSO being 0.1%. The molecules are tested either at a single concentration of less than or equal to 10 μM, or at increasing concentrations in a range that can extend from less than 1 nM to 10 μM.
After this incubation, the cells are lysed for the preparation of the proteins. After the culture medium has been drawn off, the cells are rinsed with 1 ml of PBS (DPBS Gibco, #14190-094), recovered by scraping in 200 μl of complete HNTG buffer and transferred into a 96-well plate (Greiner #651201), and lysed for 1 h on ice. The HNTG buffer is composed of the following mixture: 50 mM hepes, 150 mM NaCl, 1% triton, 10% glycerol, with extemporaneous addition of one Mini Protease Inhibitor Cocktail tablet (Roche 1836153) and of one Phosphatase Inhibitor Cocktail tablet (Roche 104906837001) per 10 ml of buffer.
The lysate is centrifuged for 10 min at 6000 rpm. 155 μl of supernatant are recovered. 150 μl are incubated for denaturation for 5 min at 95° C. in the presence of 4× NuPAGE LDS Sample Buffer diluted 4-fold (InVitrogen ref NP0007) and of 10× NuPAGE Sample Reducing Agent diluted 10-fold (InVitrogen ref NP0009). These samples are then frozen at −20° C. 5 μl are assayed by the microBCA technique according to the technical bulletin of the MicroBCA Protein Assay Kit (Pierce #23235).
For protein separation, 20 μg of proteins are loaded on to a NU-PAGE 4-12% Bis Tris Gel 12 well (InVitrogen ref NP0322BOX) and the migration is carried out for 1 h 30 in 20×NU-PAGE MOPS SDS Running Buffer diluted 20-fold (InVitrogen ref NP0001), at 150 volts.
The gel is then transferred onto an Invitrolon PVDF membrane (Invitrogen #LC2007) permeabilised beforehand for a few seconds in ethanol (Ethanol Fischer Scientific #E/0600DF/15).
The transfer is carried out in a Biorad tank at 30 volts overnight or at 60 volts for 3 hours, in the presence of 20× NUPAGE Transfer Buffer diluted 20-fold (InVitrogen ref NP0006).
The membrane is then saturated in saturating solution composed of TBS (10× Tris Buffered Saline, Sigma #T5912, diluted 10-fold), 0.1% Tween 20 (Sigma #P5927) and 3% BSA (Bovine Serum Albumin Fraction V, Sigma #A4503) for 6 h after overnight transfer or else for 1 h after transfer for a period of 3 h.
The primary antibodies are diluted to 1/1000th for the anti-phospho AKT-Ser473 antibody (193H2, rabbit monoclonal, cat#4058 from Cell Signaling Technology) Abcam), in saturating solution composed of […], 0.1% Tween 20 and 3% BSA, and then shaken overnight at 4° C.
Two rinses for 5 min in washing solution composed of TBS and 0.1% Tween 20 are carried out before hybridisation of the secondary antibodies. […]

In assay [2] the test system is AKT protein phosphorylated on serine 473 (P-AKT-S473) in PC3 human prostate carcinoma cells. The experiment in a line: pAKT expression in PC3 cells measured by MSD Multi-spot Biomarker Detection (Test B). It counts as cell-based. The following applies: PC-3, inhibition of AKT Ser473 phosphorylation, 1 to 2 h incubation, MSD sandwich immunoassay, absolute IC50, mean of two experiments. Here is the method:
as §1
Where appropriate, the activity of the products is translated into approximately IC50, obtained from a dose-response curve of various concentrations tested and representing the dose giving 50% of specific inhibition (absolute IC50). Two independent experiments make it possible to calculate the mean of the IC50s. Study of pAKT expression in PC3 human prostate carcinoma cells measured by the MSD Multi-spot Biomarker Detection technique from Meso Scale Discovery (Test B): This test is based on measuring the expression of the AKT protein phosphorylated on serine 473 (P-AKT-S473), in the PC3 human prostate carcinoma line, by means of the technique based on a sandwich immunoassay using the MSD Multi-spot Biomarker Detection kit from Meso Scale Discovery: phospho-Akt (Ser473) whole cell lysate kit (#K151 CAD) or phospho-Akt (Ser473)/Total Akt whole cell lysate kit (#K151OOD).
The primary antibody specific for P-AKT-5473 (Kit #K151 CAD) is coated onto an electrode in each well of the 96-well plates of the MSD kit: after the addition of a protein lysate to each well, the signal is visualised by adding a secondary detection antibody labelled with an electrochemoluminescent compound. The procedure followed is that described in the kit.
On day 1, the PC3 cells are seeded into 96-well plates (TPP, #92096) at the concentration of 35 000 cells/well in 200 μl of DMEM medium (DMEM Gibco #11960-044) containing 10% of foetal calf serum (FCS Gibco, #10500-056) and 1% glutamine (L-Glu Gibco #25030-024), and incubated at 37° C., 5% CO2, overnight.
On day 2, the cells are incubated in the presence or absence of the test products for 1 to 2 h at 37° C. in the presence of 5% of CO2. The molecules, diluted in dimethyl sulphoxide (DMSO Sigma #D2650), are added from a 20-times concentrated stock solution, the final percentage of DMSO being 0.1%. The molecules are tested either at a single concentration of less than or equal to 10 μM, or at increasing concentrations in a range that can extend from less than 1 nM to 10 μM.
After this incubation, the cells are lysed for the preparation of the proteins. For this, after the culture medium has been drawn off, […] of complete Tris Lysis Buffer of the MSD kit containing the protease and phosphatase inhibitor solutions are added to the wells and the cells are lysed for 1 h at 4° C. with shaking At this stage, the plates containing the lysates can be frozen at −20° C. or at −80° C.
The wells of the 96-well plates of the MSD kit are saturated for 1 h at ambient temperature with the blocking solution of the MSD kit. Four washes are carried out with 150 μl of Tris Wash Buffer of the MSD kit. The lysates previously prepared are transferred into the 96-well multi-spot plates of the MSD kit and incubated for 1 h at ambient temperature, with shaking Four washes are carried out with 150 μl of Tris Wash Buffer of the MSD kit. 25 μl of the MSD sulpho-tag detection antibody solution are added to the wells and incubated for 1 h at ambient temperature, with shaking Four washes are carried out with 150 μl of Tris Wash Buffer of the MSD kit. 150 μl of Read Buffer of the MSD kit are added to the wells and the plates are read immediately on the 512400 instrument from Meso Scale Discovery.
The instrument measures a signal for each well. Wells without cells and containing the lysis buffer serve to determine the background noise that will be subtracted from all the measurements (min). The wells containing cells in the absence of product and in the presence of 0.1% DMSO are considered to be the 100% signal (max). The percentage inhibition is calculated for each concentration of test product according to the following formula: (1−((test−min)/(max−min)))×100. […]

In the case of `O=c1cc(N2CCOCC2)nc(Cc2nc3ccccc3o2)[nH]1` [Example 2, 2-(1,3-benzoxazol-2-ylmethyl)-6-(morpholin-4-yl)pyrimidin-4(3H)-one], the IC50 (as a rule, the concentration at which inhibition is half-maximal) in assay [1] was 388 nM.

In turn, `O=c1cc(N2CCOCC2)nc(Cc2nc3cc(F)c(F)cc3[nH]2)[nH]1` [Example 5, 2-[(5,6-difluoro-1H-benzimidazol-2-yl)methyl]-6-(morpholin-4-yl)pyrimidin-4(3H)-one] displayed an IC50 in assay [1] of 1010 nM.

Regarding `Cn1c(Cc2nc(N3CCOCC3)cc(=O)[nH]2)nc2ccccc21` [Example 10, 2-[(1-methyl-1H-benzimidazol-2-yl)methyl]-6-(morpholin-4-yl)pyrimidin-4(3H)-one], the IC50 in assay [1] worked out at 713 nM; in assay [2] it was 27 nM.

On to `O=c1cc(N2CCOCC2)nc(Cc2nc3cc(F)ccc3o2)[nH]1` [Example 7, 2-[(5-fluoro-1,3-benzoxazol-2-yl)methyl]-6-(morpholin-4-yl)pyrimidin-4(3H)-one], for which the IC50 in assay [1] was 903 nM; in assay [2], 26 nM.

With `O=c1cc(N2CCOCC2)nc(Cc2nc3ccc(Br)cc3[nH]2)[nH]1` [Example 3, 2-[(5-bromo-1H-benzimidazol-2-yl)methyl]-6-(morpholin-4-yl)pyrimidin-4(3H)-one], the IC50 in assay [1] worked out at 1340 nM; in assay [2], 85 nM.

With `O=c1cc(N2CCOCC2)nc(Cc2nc3ccc(F)cc3o2)[nH]1` [Example 6, 2-[(6-fluoro-1,3-benzoxazol-2-yl)methyl]-6-(morpholin-4-yl)pyrimidin-4(3H)-one], the concentration for half-maximal inhibition (IC50) was 380 nM in assay [1] and 49 nM in assay [2].

In the case of `O=c1cc(N2CCOCC2)nc(Cc2nc3cccc(F)c3o2)[nH]1` [Example 12, 2-[(7-fluoro-1,3-benzoxazol-2-yl)methyl]-6-(morpholin-4-yl)pyrimidin-4(3H)-one], 88 nM corresponded to half-maximal inhibition in assay [2] (IC50).

Turning to `O=c1cc(N2CCOCC2)nc(Cc2nc3ccc(F)cc3[nH]2)[nH]1` [Example 1, 2-[(5-fluoro-1H-benzimidazol-2-yl)methyl]-6-(morpholin-4-yl)pyrimidin-4(3H)-one], the IC50 was found to be 298 nM in assay [1] and 41 nM in assay [2].

In turn, `Cn1c(Cc2nc(N3CCOCC3)cc(=O)[nH]2)nc2ccc(F)c(F)c21` [Example 37, 2-[(6,7-Difluoro-1-methyl-1H-benzimidazol-2-yl)methyl]-6-(morpholin-4-yl)pyrimidin-4(3H)-one] came in with an IC50 in assay [2] of 15 nM.

For the compound `COCCn1c(Cc2nc(N3CCOCC3)cc(=O)[nH]2)nc2cc(F)ccc21` [Example 19, 2-{[5-fluoro-1-(2-methoxyethyl)-1H-benzimidazol-2-yl]methyl}-6-(morpholin-4-yl)pyrimidin-4(3H)-one], it took 109 nM to reach half-maximal inhibition in assay [2] (IC50).

`O=c1cc(N2CCOCC2)nc(Cc2nc3ccc(C(F)(F)F)cc3[nH]2)[nH]1` [Example 26, 6-(morpholin-4-yl)-2-{[6-(trifluoromethyl)-1H-benzimidazol-2-yl]methyl}pyrimidine-4(3H)-one] registered a half-inhibitory concentration (IC50) in assay [2] of 961 nM.

`O=c1cc(N2CCOCC2)nc(Cc2nc3cc(F)cc(F)c3[nH]2)[nH]1` [Example 31, 2-[(5,7-difluoro-1H-benzimidazol-2-yl)methyl]-6-(morpholin-4-yl)pyrimidine-4(3H)-one] yielded an IC50 in assay [2] of 144 nM.

Values taken from patent publication US8507483B2, “1H-pyrimidin-2-one derivatives, preparation thereof and pharmaceutical use thereof as inhibitors of AKT (PKB) phosphorylation” (Sanofi, priority 2009, dated 2013).
